Source: PubChem BioAssay (NCI)
Several values for one entry are separate records, joined by “and”; a condition that tells them apart may be missing. Equal entries are not always repeated.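 Results reflect a 48-hour exposure of cells in 96-well plates to compound at five concentrations. At the GI50, growth is halved. Definition used: TGI = concentration required for complete inhibition of growth.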

Legend:
Assay in all cases: growth of human tumour cells (NCI), 48 h
CCRF-CEM leukemia = system: CCRF-CEM leukemia
NCI-H23 lung = system: NCI-H23 lung
ACHN renal = system: ACHN renal
SK-MEL-5 melanoma = system: SK-MEL-5 melanoma
M14 melanoma = system: M14 melanoma
UACC-257 melanoma = system: UACC-257 melanoma
DMS 273 small cell lung = system: DMS 273 small cell lung
DMS 114 small cell lung = system: DMS 114 small cell lung
U251 CNS = system: U251 CNS
MDA-MB-435 = system: MDA-MB-435

SMILES	TGI (CCRF-CEM leukemia)	TGI (NCI-H23 lung)	TGI (ACHN renal) [µM]	TGI (SK-MEL-5 melanoma) [µM]	TGI (M14 melanoma) [µM]	TGI (UACC-257 melanoma) [µM]	TGI (DMS 273 small cell lung)	TGI (DMS 114 small cell lung)	TGI (U251 CNS)	GI50 (CCRF-CEM leukemia) [µM]	GI50 (NCI-H23 lung) [µM]	GI50 (U251 CNS) [µM]	GI50 (DMS 273 small cell lung) [µM]	GI50 (DMS 114 small cell lung) [µM]	TGI (MDA-MB-435) [µM]
COc1ccc(CNc2cnc3ccc(N)cc3n2)cc1	> 100 µM	> 100 µM	> 100	> 100	> 100	> 100	> 100 µM	> 100 µM	–	–	–	–	–	–	–
Cc1c(N2CCOCC2)nc2ccc(Cl)cc2c1-c1ccccc1	> 100 µM	> 100 µM	> 100	65.7	> 100	> 100	> 100 µM	> 100 µM	> 100 µM	–	–	–	–	–	–
O=[N+]([O-])c1ccc(C[P+]2(c3ccccc3)CCCCC2)cc1	> 100 µM	> 100 µM	> 100	> 100	> 100	> 100	> 100 µM	> 100 µM	> 100 µM	–	–	–	–	–	–
Cc1nc2ccccc2nc1CC(=O)C(=O)Nc1ccc(Cl)cc1Cl	> 100 µM	> 100 µM	> 100	> 100	> 100	> 100	> 100 µM	–	> 100 µM	–	–	–	–	–	–
Cc1cc([N+](=O)[O-])c(C)c2c1[nH]c1ccc(Cl)cc12	> 100 µM	> 100 µM	> 100	> 100	> 100	> 100	> 100 µM	> 100 µM	–	–	–	–	–	–	–
Cc1c2ccnc(C(N)=O)c2c(C)c2c1[nH]c1ccccc12	46.6 µM and > 100 µM	24.4 µM and 18.9 µM	13.8	13.6	> 100	35.1	23.7 µM and 16.7 µM	47.3 µM and 47.6 µM	37.7 µM and 16.5 µM	3.64	3.41	4.14	3.5	6.72	–
CCOC(=O)C1C(c2ccc(Cl)cc2Cl)NC(c2ccc(C)cc2)C(C(=O)OC)S1(=O)=O (centres undefined)	> 100 µM	> 100 µM	> 100	> 100	> 100	> 100	> 100 µM	–	> 100 µM	–	–	–	–	–	–
COc1ccc(C2Oc3ccc(Cl)cc3C=C2[N+](=O)[O-])cc1 (centres undefined)	> 100 µM	> 100 µM	> 100	> 100	> 100	> 100	–	–	> 100 µM	–	–	–	–	–	> 100
Cc1c(C)n(-c2ccccc2)c2nc(S(C)=O)nc(S(C)=O)c12 (centres undefined)	3.88 µM	29.5 µM	18.5	6.1	6.45	25.9	–	–	21.1 µM	–	–	–	–	–	9.76
c1ccc(C2=NC3OC2c2ccccc23)cc1 (centres undefined)	> 10 µM	> 10 µM	> 10	> 10	> 10	> 10	–	–	> 10 µM	–	–	–	–	–	> 10
COC(=O)c1ccccc1C1CN=NC12Cc1c(ccc(C)c1C)C2=O (centres undefined)	> 100 µM	> 100 µM	> 100	> 100	> 100	> 100	–	–	> 100 µM	–	–	–	–	–	> 100
COc1ccc2c(c1)c1c(n2CCN2CCCCC2)-c2cccc(OC)c2CC1	27.3 µM	32.1 µM	43	45.5	25	38	–	–	29.9 µM	–	–	–	–	–	31.5
C[C@]12CCC3[C@@H](CCC45OC4C(=O)CC[C@]35C)C1Cc1cnn(-c3ccc(F)cc3)c1N2 (some centres undefined)	> 100 µM	54.4 µM	> 100	> 100	> 100	> 100	38.9 µM	50.5 µM	98 µM	–	–	–	–	–	–
O=[N+]([O-])c1cccc(C2=NN(c3ccccc3)C3c4cc(Br)ccc4OCC23)c1 (centres undefined)	> 100 µM	> 100 µM	> 100	> 100	–	> 100	> 100 µM	> 100 µM	> 100 µM	–	–	–	–	–	–
CCCCCCN(CCCCCC)C(=S)N/N=C(\C)c1ccccn1	4.39 µM	3.27 µM	2.17	2.57	3.29	4.34	3.92 µM	2.29 µM	1.71 µM	–	–	–	–	–	3.7
N#CNC(N)=NCc1ccccc1	> 100 µM	> 100 µM	> 100	> 100	> 100	> 100	> 100 µM	> 100 µM	> 100 µM	–	–	–	–	–	–
CC1=NN(C(=O)Cc2ccccc2)C(=O)/C1=C\c1ccc(O)cc1	> 100 µM	> 100 µM	> 100	> 100	> 100	> 100	–	> 100 µM	> 100 µM	–	–	–	–	–	–
CC(=O)Nc1nc(Cl)cc(NCC2(CO)CCC2)n1	> 100 µM	> 100 µM	> 100	> 100	> 100	> 100	–	–	> 100 µM	–	–	–	–	–	> 100
CC1CC(N2CCOCC2)=Nc2ccccc2N1C (centres undefined)	> 100 µM	> 100 µM	> 100	> 100	> 100	> 100	–	–	> 100 µM	–	–	–	–	–	> 100
CCOC(=O)c1c(N2CCCC2)[nH]c(=O)c(C(c2ccc(OC)cc2)c2c(O)c(C(=O)OCC)c(N3CCCC3)[nH]c2=O)c1O	> 100 µM	> 100 µM	> 100	> 100	> 100	> 100	–	–	> 100 µM	–	–	–	–	–	> 100
CCCCCCCC(=O)OCC(COC(=O)C(C)(C)C)OC(=O)Cc1ccccc1 (centres undefined)	> 100 µM	> 100 µM	> 100	> 100	> 100	–	> 100 µM	> 100 µM	> 100 µM	–	–	–	–	–	–
O=C(COc1ccc(OCC(=O)N/N=C/c2ccc(-c3ccc(Cl)cc3Cl)o2)c(Cl)c1)N/N=C/c1ccc(-c2ccc(Cl)cc2Cl)o1	34.8 µM	> 100 µM	> 100	> 100	> 100	> 100	–	–	> 100 µM	–	–	–	–	–	> 100
COc1cc(C)c(CC/C(C)=C/Cc2cc(O)ccc2O)c(C)c1C	> 25 µM	> 25 µM	> 25	> 25	> 25	–	> 25 µM	> 25 µM	> 25 µM	–	–	–	–	–	–
CC(=O)c1ccc(Oc2c3ccccc3nc3ccccc23)cc1	8.43 µM	56.6 µM	15.9	28.6	14.6	15.4	–	–	25.9 µM	–	–	–	–	–	10.5
Cn1c2ccccc2n2c3ncccc3c(=O)c(C#N)c12	> 100 µM	36.6 µM	11.7	21.5	> 100	> 100	–	–	34 µM	–	–	–	–	–	> 100
COc1ccc(N=Nc2c(-c3c(OC)cc4occc4c3OC)[nH]c(=O)c(C#N)c2C)cc1	> 100 µM	> 100 µM	> 100	> 100	> 100	> 100	–	–	> 100 µM	–	–	–	–	–	> 100
CN(C)C(=O)C(F)(F)C(c1ccc(F)cc1)C1C(=O)N(C)C(=O)N(C)C1=O (centres undefined)	> 100 µM	> 100 µM	> 100	> 100	> 100	> 100	–	–	> 100 µM	–	–	–	–	–	> 100
O=c1oc2ccc3ccccc3c2cc1-c1cn2ccsc2n1	51.6 µM	92 µM	32.1	56.5	60.5	66.1	–	–	> 100 µM	–	–	–	–	–	46
CC(C)C(Br)CCC1=CCC(Br)(Br)C1 (centres undefined)	> 100 µM	21.5 µM	30.6	18.3	12.9	28.2	–	–	28.8 µM	–	–	–	–	–	22.5
